The text below walks through data of patent US9556179B2 (BRISTOL-MYERS SQUIBB COMPANY, priority 2012, dated 2017).

In one assay the target is CK1ε (Homo sapiens (Human), UniProt P49674). The assay can be described thus: CK1ε kinase assay (Caliper LABCHIP electrophoretic separation of fluoresceinated peptide substrate and product). Format: biochemical. The note with it: 200 pM enzyme, 50 μM ATP, 22 hours at room temperature. The essentials:
(§1)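 Compounds, taken from 10 mM DMSO stocks, are titrated at eleven concentrations. Kinase reactions proceed for 22 hours at room temperature and are quenched with EDTA. Substrate and product are resolved electrophoretically, and IC50 values are fitted by non-linear regression.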

Another assay has as its target CK1δ (Homo sapiens (Human), UniProt P48730). Description: CK1δ kinase assay (Caliper LABCHIP electrophoretic separation of fluoresceinated peptide substrate and product). The note with it: 200 pM enzyme, 50 μM ATP, 22 hours at room temperature. Format: biochemical. The essentials: as §1
In the next assay the test system is pancreatic tumor cell. Particulars: in vitro and in vivo; Brockschmidt et al., Gut 2008; cited from earlier work.

Chain of CK1δ (P48730 whole entry): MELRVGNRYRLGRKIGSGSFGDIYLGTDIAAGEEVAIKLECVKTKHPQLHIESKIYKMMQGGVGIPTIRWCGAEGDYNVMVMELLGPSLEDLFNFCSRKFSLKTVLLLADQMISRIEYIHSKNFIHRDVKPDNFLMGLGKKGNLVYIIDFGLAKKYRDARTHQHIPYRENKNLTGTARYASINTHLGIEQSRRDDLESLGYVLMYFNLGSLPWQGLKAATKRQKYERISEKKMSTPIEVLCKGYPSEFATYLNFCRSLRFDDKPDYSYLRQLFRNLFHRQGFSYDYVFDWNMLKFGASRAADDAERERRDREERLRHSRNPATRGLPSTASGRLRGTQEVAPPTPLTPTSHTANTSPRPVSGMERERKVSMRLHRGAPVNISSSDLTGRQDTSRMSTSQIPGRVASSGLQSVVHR
Chain of CK1ε (P49674 whole entry): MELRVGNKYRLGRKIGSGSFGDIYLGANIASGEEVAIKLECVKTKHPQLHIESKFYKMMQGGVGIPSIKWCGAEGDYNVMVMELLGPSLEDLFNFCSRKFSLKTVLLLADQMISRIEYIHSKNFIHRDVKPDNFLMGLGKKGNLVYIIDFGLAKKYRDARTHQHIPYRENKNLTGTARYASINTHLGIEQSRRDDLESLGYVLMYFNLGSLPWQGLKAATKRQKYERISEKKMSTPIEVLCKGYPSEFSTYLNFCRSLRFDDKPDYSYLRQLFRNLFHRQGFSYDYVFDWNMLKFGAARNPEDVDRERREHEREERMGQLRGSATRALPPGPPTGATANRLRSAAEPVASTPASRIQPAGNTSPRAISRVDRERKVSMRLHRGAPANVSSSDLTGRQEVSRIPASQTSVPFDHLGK

For `CC(C)(C)NC(=O)N1CCn2c(nc(-c3ccc(F)cc3)c2-c2ccc3nc(NC(=O)c4ccnc(F)c4)cn3n2)C1` [Compound 481, N-(tert-Butyl)-3-(2-(2-fluoroisonicotinamido)imidazo[1,2-b]pyridazin-6-yl)-2-(4-fluorophenyl)-5,6-dihydroimidazo[1,2-a]pyrazine-7(8H)-carboxamide], the IC50 (usually the concentration that inhibits the measured activity by half) on CK1ε turned out to be 5.4 nM; against CK1δ, 0.6 nM. As to `CC(C)NC(=O)N1CCn2c(nc(-c3ccc(F)cc3)c2-c2ccc3nc(NC(=O)c4ccnc(F)c4)cn3n2)C1` [Compound 482, 3-(2-(2-Fluoroisonicotinamido)imidazo[1,2-b]pyridazin-6-yl)-2-(4-fluorophenyl)-N-isopropyl-5,6-dihydroimidazo[1,2-a]pyrazine-7(8H)-carboxamide], the concentration for half-maximal inhibition (IC50) is 11.9 nM against CK1ε and 1.1 nM against CK1δ. Turning to `O=C(Nc1cn2nc(-c3c(-c4ccc(F)cc4)nc4n3CCN(C(=O)NC3CC3)C4)ccc2n1)c1ccnc(F)c1` [Compound 483, N-Cyclopropyl-3-(2-(2-fluoroisonicotinamido)imidazo[1,2-b]pyridazin-6-yl)-2-(4-fluorophenyl)-5,6-dihydroimidazo[1,2-a]pyrazine-7(8H)-carboxamide], the IC50 at CK1ε is 3.9 nM; against CK1δ, 0.4 nM.

With `CC(C)(NC(=O)N1CCn2c(nc(-c3ccc(F)cc3)c2-c2ccc3nc(NC(=O)c4ccnc(F)c4)cn3n2)C1)C(F)(F)F` [Compound 484, 3-(2-(2-Fluoroisonicotinamido)imidazo[1,2-b]pyridazin-6-yl)-2-(4-fluorophenyl)-N-(1,1,1-trifluoro-2-methylpropan-2-yl)-5,6-dihydroimidazo[1,2-a]pyrazine-7(8H)-carboxamide], the IC50 on CK1ε was 6.7 nM; at CK1δ it was 0.6 nM. For `CC1(NC(=O)N2CCn3c(nc(-c4ccc(F)cc4)c3-c3ccc4nc(NC(=O)c5ccnc(F)c5)cn4n3)C2)CC1` [Compound 485, 3-(2-(2-Fluoroisonicotinamido)imidazo[1,2-b]pyridazin-6-yl)-2-(4-fluorophenyl)-N-(1-methylcyclopropyl)-5,6-dihydroimidazo[1,2-a]pyrazine-7(8H)-carboxamide], in that order: 4.5 nM and 0.5 nM. Consider `O=C(Nc1cn2nc(-c3c(-c4ccc(F)cc4)nc4n3CCN(C(=O)NCCC(F)(F)F)C4)ccc2n1)c1ccnc(F)c1` [Compound 486, 3-(2-(2-Fluoroisonicotinamido)imidazo[1,2-b]pyridazin-6-yl)-2-(4-fluorophenyl)-N-(3,3,3-trifluoropropyl)-5,6-dihydroimidazo[1,2-a]pyrazine-7(8H)-carboxamide], for which the IC50 is 6.4 nM on CK1ε and 0.7 nM against CK1δ.

Regarding `CC(C)OC(=O)N1CCn2c(nc(-c3ccc(F)cc3)c2-c2ccc3nc(NC(=O)c4ccnc(F)c4)cn3n2)C1` [Example 475], the IC50 turned out to be 8.1 nM against CK1ε and 0.7 nM against CK1δ. Regarding `COc1cc(OC)c(C=C2C(O)=Nc3ccccc32)c(OC)c1` [IC261], the “pancreatic tumor cell growth” value in the assay with pancreatic tumor cell is “reduces pancreatic tumor cell growth in vitro and in vivo”.
